Tested on: NA (H275Y), OSV-resistant mutant of influenza H1N1 (A/California/04/2009)
Format: biochemical, influenza A virus

Cc1cc2c(c(=S)[nH]1)C(=O)O/C2=C\c1c[nH]c2ccc(F)cc12 [Compound 15a, (Z)-1-((5-Fluoro-1H-indol-3-yl)methylene)-6-methyl-4-thioxo-4,5-dihydrofuro[3,4-c]pyridin-3(1H)-one]
function of oseltamivir-resistant NA (H275Y): suppressed
